Publication PMC11606974, “Stereoselective chemical N-glycoconjugation of amines via CO2 incorporation” (Nature Communications, 2024)

What was measured:
[1] = Pharmacokinetic analysis of crizotinib glucosides after oral gavage, plasma LC/MS/MS; format: in vivo, male C57 mice
HEK-293T cells = assay: Cell viability assay (CCK-8, 72 h); settings: Homo sapiens, read-out: HEK-293T IC50 (growth inhibition)
SK-MEL-28 cells = assay: Cell viability assay (CCK-8, 72 h); settings: Homo sapiens, SK-MEL-28, 72 h, read-out: SK-MEL-28 IC50 (growth inhibition)
SNU-5 cells = assay: Cell viability assay (CCK-8, 72 h); settings: Homo sapiens, SNU-5, 72 h, read-out: SNU-5 IC50 (growth inhibition)
[2] = target: ALK (kinase domain, 1068–1410) (Homo sapiens, UniProt Q9UM73); assay: Enzymatic inhibition assay, ATP hydrolysis (Kinase-Glo luminescent kit)
cancer cells = system: cancer cells; parameters: method as in PMID 25184545; settings: compared with deglycoBLM (6); cited from earlier work
[3] = mouse, plasma, oral GA95 91.6 mg/kg, male C57 mice, analyte Glycolcrizotinib

Sequence of ALK (kinase domain, 1068–1410) (Q9UM73 1068-1410): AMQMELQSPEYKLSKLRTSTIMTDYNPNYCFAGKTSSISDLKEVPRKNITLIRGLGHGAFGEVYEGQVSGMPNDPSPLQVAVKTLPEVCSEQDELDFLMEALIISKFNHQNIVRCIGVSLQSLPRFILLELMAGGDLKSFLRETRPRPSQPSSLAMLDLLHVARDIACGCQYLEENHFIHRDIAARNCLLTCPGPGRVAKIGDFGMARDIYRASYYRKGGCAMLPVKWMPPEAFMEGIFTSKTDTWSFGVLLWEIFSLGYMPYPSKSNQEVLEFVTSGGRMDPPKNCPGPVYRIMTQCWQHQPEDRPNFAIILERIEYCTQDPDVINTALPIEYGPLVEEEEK

half-life ([1]; mouse, plasma, oral GA95 91.6 mg/kg, male C57 mice, analyte GA95) [min]	AUC(0-inf) [1, 3] [µg·h/mL]	AUC(0-t) [1, 3] [µg·h/mL]	Cmax [1, 3] [µg/mL]	MRT [1, 3] [min]	Tmax [1, 3] [min]	IC50 (SK-MEL-28 cells) [µM]	IC50 (SNU-5 cells) [µM]	IC50 [2] [µM]	Compound	plasma concentration of crizotinib after oral application of the glucoside ([1]; oral GA95, male C57 mice, compared with the crizotinib group)	IC50 (HEK-293T cells) [µM]	cytotoxic activity (cancer cells)
43.6	0.0426	0.0376	0.0336	64.8	15	25	0.022	0.3	C[C@@H](Oc1cc(-c2cnn(C3CCN(C(=O)O[C@@H]4O[C@H](CO)[C@@H](O)[C@H](O)[C@H]4O)CC3)c2)cnc1N)c1c(Cl)ccc(F)c1Cl [GA95]	quickly increased to the similar level as the crizotinib group	25	–
–	–	–	–	–	–	–	–	–	Cc1c(N)nc([C@H](CC(N)=O)NC[C@H](N)C(N)=O)nc1C(=O)N[C@H](C(=O)N[C@H](C)[C@@H](O)[C@H](C)C(=O)N[C@H](C(=O)NCCc1nc(-c2nc(C(=O)NCCCNCCCCNC(=O)OC3O[C@@H](CO)[C@@H](O)[C@H](O)[C@@H]3O[C@H]3O[C@H](CO)[C@@H](O)[C@H](OC(N)=O)[C@@H]3O)cs2)cs1)[C@@H](C)O)[C@@H](O)c1c[nH]cn1 (stereo partly shown) [compound 5]	–	–	significantly more potent cytotoxic activity than deglycoBLM (6)
–	–	–	–	–	–	5	0.045	1.1	CC(=O)OC[C@H]1O[C@@H](OC(=O)N2CCC(n3cc(-c4cnc(N)c(O[C@H](C)c5c(Cl)ccc(F)c5Cl)c4)cn3)CC2)[C@H](OC(C)=O)[C@@H](OC(C)=O)[C@@H]1OC(C)=O [GA89]	–	5	–
–	–	–	–	–	–	6	0.015	–	C[C@@H](Oc1cc(-c2cnn(C3CCNCC3)c2)cnc1N)c1c(Cl)ccc(F)c1Cl [Crizotinib, reference compound]	–	6	–
